In the supplement of paper PMC9663587:

How the values were obtained:
Test in all cases: GRmax, 72 h; higher = less effect;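 also: breast cell lines in 384-well plates, nine doses across a 10^4 range, Dye Drop imaging of viable cells vs DMSO and time-zero plates, GR 0 means no net growth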
HCC1954 = system: HCC1954
HS578T = system: HS578T
MDAMB468 = system: MDAMB468
ZR7530 = system: ZR7530
T47D = system: T47D
EFM19 = system: EFM19
HCC1187 = system: HCC1187
MCF10A = system: MCF10A
SUM229PE = system: SUM229PE
SUM190PT = system: SUM190PT
CAL120 = system: CAL120
SKBR3 = system: SKBR3
MCF12A = system: MCF12A

| SMILES | GRmax, 72 h (HCC1954) [GR] | GRmax, 72 h (HS578T) [GR] | GRmax, 72 h (MDAMB468) [GR] | GRmax, 72 h (ZR7530) [GR] | GRmax, 72 h (T47D) [GR] | GRmax, 72 h (EFM19) [GR] | GRmax, 72 h (HCC1187) [GR] | GRmax, 72 h (MCF10A) [GR] | GRmax, 72 h (SUM229PE) [GR] | GRmax, 72 h (SUM190PT) [GR] | GRmax, 72 h (CAL120) [GR] | GRmax, 72 h (SKBR3) [GR] | GRmax, 72 h (MCF12A) [GR] |
| --- | --- | --- | --- | --- | --- | --- | --- | --- | --- | --- | --- | --- | --- |
| COc1cc2nccc(Oc3ccc(NC(=O)C4(C(=O)Nc5ccc(F)cc5)CC4)cc3)c2cc1OC [Cabozantinib] (max 10 µM) | 0.639 | 0.215 | 0.423 | 0.449 | 0.313 | 0.668 | 0.222 | 0.843 | 0.199 | -0.0122 | 0.257 | 0.442 | 0.96 |
| COc1cc2c(Oc3ccc4[nH]c(C)cc4c3F)ncnc2cc1OCCCN1CCCC1 [Cediranib/AZD2171] (max 10 µM) | -0.32 | -0.572 | -0.708 | -0.145 | -0.64 | 0.685 | 0.349 | 0.478 | 0.18 | 0.893 | -0.124 | -0.54 | 0.937 |
| Cc1cc(Nc2ncc(Cl)c(Nc3ccccc3S(=O)(=O)C(C)C)n2)c(OC(C)C)cc1C1CCNCC1 [Ceritinib/LDK378] (max 10 µM) | -0.445 | -0.436 | -0.742 | 0.416 | -0.855 | -0.258 | 0.121 | -0.319 | 0.336 | -0.375 | -0.432 | -0.825 | 0.172 |
| N.N.[Cl][Pt][Cl] [Cisplatin] (max 10 µM) | -0.0741 | 0.0125 | -0.287 |  | 0.102 |  |  | 0.379 |  |  | 0.188 | 0.249 |  |
| Cc1nc(Nc2ncc(C(=O)Nc3c(C)cccc3Cl)s2)cc(N2CCN(CCO)CC2)n1 [Dasatinib] (max 10 µM) | 0.274 | -0.244 | 0.339 | -0.0607 | 0.496 | -0.0421 | 0.069 | -0.0146 | -0.112 | 0.423 | 0.176 | 0.081 | -0.0434 |
| COc1cccc2c1C(=O)c1c(O)c3c(c(O)c1C2=O)C[C@@](O)(C(=O)CO)C[C@@H]3O[C@H]1C[C@H](N)[C@H](O)[C@H](C)O1 [Doxorubicin] (max 3.162 µM) | -0.338 | -0.347 | -0.339 | -0.274 | -0.361 | -0.18 | -0.83 | -0.324 | -0.125 | -0.123 | -0.247 | -0.616 | -0.138 |
| COc1cc([C@@H]2c3cc4c(cc3[C@@H](O[C@@H]3O[C@@H]5CO[C@@H](C)O[C@H]5[C@H](O)[C@H]3O)[C@H]3COC(=O)[C@H]23)OCO4)cc(OC)c1O [Etoposide] (max 10 µM) | -0.265 | -0.136 | -0.513 |  | -0.186 |  |  | -0.0699 |  |  | -0.166 | -0.317 |  |
| CC[C@@]1(O)C(=O)OCc2c1cc1n(c2=O)Cc2cc3c(CN(C)C)c(O)ccc3nc2-1 [Topotecan] (max 10 µM) | -0.401 | -0.449 | -0.658 |  | -0.197 |  |  | -0.2 |  |  | -0.336 | -0.271 |  |
